Structures can show the parent of a compound that is named as a salt.
Tested on: Eimeria tenella K-2
Experiment: anticoccidial test in chicks (Example 4)
Conditions: for Caecal lession (numbers of chicks), ++: grade ++ (middle); for Caecal lession (numbers of chicks), +++: grade +++ (heavy)
[1] = 0.0033 % in diet, groups of 10 chicks
[2] = 0.0066 % in diet, groups of 10 chicks
[3] = 0.025 % in diet, groups of 10 chicks
[4] = 0.0125 % in diet, groups of 10 chicks

Compound | Survival ratio (0.0033 % in diet) | Survival ratio (0.0066 % in diet) | Caecal lession (numbers of chicks), + (grade + (light), 0.0066 % in diet, groups of 10 chicks) | Caecal lession (numbers of chicks), ++ [1] | Caecal lession (numbers of chicks), ++ [2] | Caecal lession (numbers of chicks), +++ [1] | Caecal lession (numbers of chicks), +++ [2] | Survival ratio (0.0125 % in diet) | Survival ratio (0.025 % in diet) | Caecal lession (numbers of chicks), ++ [3] | Caecal lession (numbers of chicks), +++ [4] | Caecal lession (numbers of chicks), +++ [3]
N=C(N/N=C/c1ccc(Cl)cc1)N/N=C/c1ccc(Cl)cc1 [Robenidine hydrochloride, reference compound] | 80% | 100% | 2 numbers of chicks | 2 numbers of chicks | 5 numbers of chicks | 8 numbers of chicks | 3 numbers of chicks | – | – | – | – | –
Cc1nc(C)c(Cl)c(O)c1Cl [Clopidol, reference compound] | – | – | – | – | – | – | – | 50% | 70% | 4 numbers of chicks | 10 numbers of chicks | 6 numbers of chicks
CCCc1ncc(C[n+]2ccccc2C)c(N)n1 [Amprolium hydrochloride, reference compound] | – | – | – | – | – | – | – | 40% | 70% | 2 numbers of chicks | 10 numbers of chicks | 8 numbers of chicks
